Laboratory results reported in the supplement of paper PMC10307832.

Key:
Assay in all cases: relative viability (nuclei count vs DMSO), 5 days (fraction); higher = more cells survive
[1] = compound: C[C@@H](N)c1ccc(C(=O)Nc2ccnc3[nH]ccc23)cc1 + Cc1cc(Nc2cc(N3CCN(C)CC3)nc(Sc3ccc(NC(=O)C4CC4)cc3)n2)n[nH]1 [Tozasertib] (partner 0.1 µM)
Method in brief: (§1)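 Lung cancer cell lines in 1536-well plates were dosed by pin tool the day after seeding, either with one drug alone or with a fixed anchor-drug dose plus five library-drug doses (not always all listed) in √10 steps. After 5 days, cells were fixed and their nuclei stained in one step (final 0.05% Triton X-100, 1% formaldehyde, 1 ug/ml Hoechst), then counted on 4× images. Relative viability is the nuclei count in treated wells divided by that in vehicle wells. Values are medians of duplicate plates.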

[2] = compound: O[C@H]1CC[C@H](Nc2ncc3nc(Nc4c(F)cc(F)cc4F)n([C@H]4CCOC4)c3n2)CC1 [Tanzisertib] + CC(=O)c1c(C)c2cnc(Nc3ccc(N4CCNCC4)cn3)nc2n(C2CCCC2)c1=O [Palbociclib] (partner 0.5 µM)
Method in brief: as §1

Tanzisertib + Alpelisib = compound: O[C@H]1CC[C@H](Nc2ncc3nc(Nc4c(F)cc(F)cc4F)n([C@H]4CCOC4)c3n2)CC1 [Tanzisertib] + Cc1nc(NC(=O)N2CCC[C@H]2C(N)=O)sc1-c1ccnc(C(C)(C)C(F)(F)F)c1 [Alpelisib] (partner 2 µM)
Method in brief: as §1

Tanzisertib + Decitabine = compound: O[C@H]1CC[C@H](Nc2ncc3nc(Nc4c(F)cc(F)cc4F)n([C@H]4CCOC4)c3n2)CC1 [Tanzisertib] + Nc1ncn([C@H]2C[C@H](O)[C@@H](CO)O2)c(=O)n1 [Decitabine] (partner 2 µM)
Method in brief: as §1

Cell Line	relative viability ([1]; first compound 0.04 µM)	relative viability ([1]; first compound 0.1265 µM)	relative viability ([1]; first compound 0.4 µM)	relative viability ([1]; first compound 1.265 µM)	relative viability ([1]; first compound 4 µM)	relative viability ([2]; first compound 0.08 µM)	relative viability ([2]; first compound 0.253 µM)	relative viability ([2]; first compound 0.8 µM)	relative viability ([2]; first compound 2.53 µM)	relative viability ([2]; first compound 8 µM)	relative viability (Tanzisertib + Alpelisib; first compound 0.08 µM)	relative viability (Tanzisertib + Alpelisib; first compound 0.253 µM)	relative viability (Tanzisertib + Alpelisib; first compound 0.8 µM)	relative viability (Tanzisertib + Alpelisib; first compound 2.53 µM)	relative viability (Tanzisertib + Alpelisib; first compound 8 µM)	relative viability (Tanzisertib + Decitabine; first compound 0.08 µM)	relative viability (Tanzisertib + Decitabine; first compound 0.253 µM)	relative viability (Tanzisertib + Decitabine; first compound 0.8 µM)	relative viability (Tanzisertib + Decitabine; first compound 2.53 µM)	relative viability (Tanzisertib + Decitabine; first compound 8 µM)
PC-3 [JPC-3]	0.892	0.839	0.955	0.967	0.816	0.539	0.53	0.576	0.521	0.571	1.05	1.07	1.12	1.03	0.972	0.836	0.787	0.803	0.801	0.737
H3255	0.568	0.632	0.779	0.824	0.613	0.297	0.301	0.327	0.336	0.31	0.739	0.718	0.665	0.629	0.471	0.799	0.598	0.647	0.482	0.448
EMC-BAC-2	0.252	0.276	0.3	0.271	0.24	0.537	0.513	0.463	0.509	0.495	0.78	0.754	0.725	0.688	0.688	1.05	0.947	0.957	0.96	0.937
NCI-H650	–	0.665	0.775	0.644	0.588	0.341	0.342	0.302	0.33	0.325	1.1	1.19	1.18	1.21	1.18	0.33	0.321	0.305	0.337	0.284
SK-MES-1	0.881	0.921	0.854	0.825	0.629	0.327	0.314	0.345	0.298	0.281	0.922	0.904	0.951	0.921	0.856	0.365	0.409	0.364	0.34	0.327
NCI-H1355	0.605	0.552	0.562	0.565	0.555	0.435	0.398	0.4	0.438	0.382	0.838	0.871	0.886	0.864	0.881	0.374	0.388	0.369	0.388	0.361
NCI-H838	0.268	0.281	0.224	0.219	0.189	0.233	0.225	0.219	0.228	0.198	1.02	1	0.92	0.965	0.973	0.455	0.468	0.459	0.483	0.481
LK-2	0.165	–	0.17	–	0.171	0.526	0.618	0.798	0.659	0.749	1.12	0.946	1.16	1.07	1.12	0.325	0.379	0.217	0.381	0.221
NCI-H322M	0.491	0.521	0.494	–	0.464	0.475	0.459	0.475	0.472	0.534	0.935	0.648	0.774	0.669	0.776	0.724	0.743	0.746	0.705	0.695
NCI-H661	0.286	0.355	0.378	0.34	0.363	0.424	0.406	0.423	0.386	0.415	0.84	0.716	0.561	0.527	0.412	0.55	0.566	0.522	0.502	0.487
NCI-H1395	0.811	0.749	0.739	0.805	0.656	0.71	0.574	0.607	0.618	0.632	1.11	1.14	1.04	1.04	0.983	0.798	0.726	0.747	0.737	0.72
NCI-H520	0.52	0.462	0.448	0.535	0.424	0.274	0.201	0.227	0.227	0.239	0.958	0.886	1.07	0.937	0.927	0.565	0.483	0.533	0.491	0.459
NCI-H441	0.742	0.716	0.65	–	0.627	0.236	0.224	0.241	0.194	0.154	0.925	0.69	0.674	0.713	0.635	0.237	0.239	0.261	0.238	0.257
